Values after ≈ are worked out from the molar mass of the structure shown. Where a SMILES comes first, the peptide text is derived from it.
Columns and labels:
[1] = test system: human red blood cells (hRBCs); assay: Hemolytic activity determination; type: cell-based; conditions: hRBCs in 0.9% sodium chloride, 37°C, 1 h, OD540, 1% Triton X-100 = 100%, three independent experiments
Procedure: Fresh human red blood cells (hRBCs) were collected in a sterile borosilicate glass tube covered with sodium citrate as the anticoagulating agent. […] Two-fold dilutions of the peptides were prepared in 0.9% sodium chloride to 100 μl and mixed with equal volumn of hRBC suspension to final peptide concentrations ranging from 12.5 to 200 μg ml^–1. After co-incubation at 37°C for 1 h, the samples were centrifuged (2,000 × g, 4°C, 20 min), and the supernatant (100 μl) was taken for optical density (OD540) measurements (Asample). The hRBCs assayed with 0.9% sodium chloride (Ablank) or 1% Triton X-100 (Apositive) were applied as 0% and 100% hemolysis, respectively. Three independent experiments were performed and the percent hemolysis was calculated according to the following equation ([Yin et al., 2012]; [Li et al., 2016]):
Hemolysis(%)=100*(Asample-Ablank)/(Apositive-Ablank)

S. aureus ATCC29213 = assay: MIC, broth dilution; type: cell-based, Staphylococcus aureus; conditions: CLSI broth dilution, MHB, 6.25 × 10^5 cfu per ml, 37°C, 20 h, OD630, at least three repeats
Procedure: All experiments were repeated at least three times.
To study the influence of physiological ions on the antimicrobial activities of the peptides, The MICs of the peptides were also determined against the standard bacterial strains cultured in MHB containing various salts at their physiological concentrations (150 mM NaCl, 4.5 mM KCl, 1 mM MgCl2, 2 mM CaCl2, 6 μM NH4HCO3, and 4 μM FeCl3) ([Ma et al., 2016]).

E. coli ATCC25922 = assay: MIC, broth dilution; type: cell-based, Escherichia coli; conditions: CLSI broth dilution, MHB, 6.25 × 10^5 cfu per ml, 37°C, 20 h, OD630, at least three repeats

SMILES	percent hRBC hemolysis ([1]; peptide 100 μg ml^–1) [%]	MIC (S. aureus ATCC29213) [µg/mL]	MIC (E. coli ATCC25922) [µg/mL]	percent hRBC hemolysis ([1]; peptide 25 μg ml^–1) [%]
CC[C@H](C)[C@H](NC(=O)[C@H](CCCNC(=N)N)NC(=O)[C@H](CCCNC(=N)N)NC(=O)[C@@H](NC(=O)[C@@H](N)Cc1ccccc1)[C@@H](C)CC)C(=O)N[C@@H](C)C(=O)N[C@@H](CCCNC(=N)N)C(=O)N[C@@H](CC(C)C)C(=O)N[C@@H](CC(C)C)C(=O)N[C@@H](CCCNC(=N)N)C(=O)N[C@@H](CCCCN)C(=O)N[C@H](C(=O)N[C@@H](Cc1ccccc1)C(N)=O)[C@@H](C)CC [Kn2-7(K3R)] (H-FIRRIARLLRKIF-NH2)	89.3	5 (≈ 2.94 µM)	20 (≈ 11.8 µM)	
CC[C@H](C)[C@H](NC(=O)[C@H](CCCCN)NC(=O)[C@H](CCCCN)NC(=O)[C@@H](NC(=O)[C@@H](N)Cc1ccccc1)[C@@H](C)CC)C(=O)N[C@@H](C)C(=O)N[C@@H](CCCCN)C(=O)N[C@@H](CC(C)C)C(=O)N[C@@H](CC(C)C)C(=O)N[C@@H](CCCNC(=N)N)C(=O)N[C@@H](CCCCN)C(=O)N[C@H](C(=O)N[C@@H](Cc1ccccc1)C(N)=O)[C@@H](C)CC [Kn2-7(R4K_R7K)] (H-FIKKIAKLLRKIF-NH2)		5 (≈ 3.09 µM)	10 (≈ 6.18 µM)	
CC[C@H](C)[C@H](NC(=O)[C@H](C)NC(=O)[C@H](CCCCN)NC(=O)[C@@H](NC(=O)[C@@H](N)Cc1ccccc1)[C@@H](C)CC)C(=O)N[C@@H](C)C(=O)N[C@@H](CCCNC(=N)N)C(=O)N[C@@H](CC(C)C)C(=O)N[C@@H](CC(C)C)C(=O)N[C@@H](CO)C(=O)N[C@@H](CCCCN)C(=O)N[C@H](C(=O)N[C@@H](Cc1ccccc1)C(N)=O)[C@@H](C)CC [Kn2(G3K)] (H-FIKAIARLLSKIF-NH2)		5 (≈ 3.29 µM)	40 (≈ 26.3 µM)	69.0
CC[C@H](C)[C@H](NC(=O)[C@H](CCCNC(=N)N)NC(=O)[C@H](CCCCN)NC(=O)[C@@H](NC(=O)[C@@H](N)Cc1ccccc1)[C@@H](C)CC)C(=O)N[C@@H](C)C(=O)N[C@@H](CCCCN)C(=O)N[C@@H](CC(C)C)C(=O)N[C@@H](CC(C)C)C(=O)N[C@@H](CCCCN)C(=O)N[C@@H](CCCCN)C(=O)N[C@H](C(=O)N[C@@H](Cc1ccccc1)C(N)=O)[C@@H](C)CC [Kn2-7(R7K_R10K)] (H-FIKRIAKLLKKIF-NH2)		5 (≈ 3.09 µM)	20 (≈ 12.4 µM)	
CC[C@H](C)[C@H](NC(=O)[C@H](C)NC(=O)[C@H](CCCCN)NC(=O)[C@@H](NC(=O)[C@@H](N)Cc1ccccc1)[C@@H](C)CC)C(=O)N[C@@H](C)C(=O)N[C@@H](CCCNC(=N)N)C(=O)N[C@@H](CC(C)C)C(=O)N[C@@H](CC(C)C)C(=O)N[C@@H](CCCNC(=N)N)C(=O)N[C@@H](CCCCN)C(=O)N[C@H](C(=O)N[C@@H](Cc1ccccc1)C(N)=O)[C@@H](C)CC [Kn2(G3K_S10R)] (H-FIKAIARLLRKIF-NH2)		10 (≈ 6.3 µM)	20 (≈ 12.6 µM)	77.5
CC[C@H](C)[C@H](NC(=O)[C@H](CCCNC(=N)N)NC(=O)CNC(=O)[C@@H](NC(=O)[C@@H](N)Cc1ccccc1)[C@@H](C)CC)C(=O)N[C@@H](C)C(=O)N[C@@H](CCCNC(=N)N)C(=O)N[C@@H](CC(C)C)C(=O)N[C@@H](CC(C)C)C(=O)N[C@@H](CO)C(=O)N[C@@H](CCCCN)C(=O)N[C@H](C(=O)N[C@@H](Cc1ccccc1)C(N)=O)[C@@H](C)CC [Kn2(A4R)] (H-FIGRIARLLSKIF-NH2)		5 (≈ 3.26 µM)	10 (≈ 6.52 µM)	100
CC[C@H](C)[C@H](NC(=O)[C@H](C)NC(=O)CNC(=O)[C@@H](NC(=O)[C@@H](N)Cc1ccccc1)[C@@H](C)CC)C(=O)N[C@@H](C)C(=O)N[C@@H](CCCNC(=N)N)C(=O)N[C@@H](CC(C)C)C(=O)N[C@@H](CC(C)C)C(=O)N[C@@H](CCCNC(=N)N)C(=O)N[C@@H](CCCCN)C(=O)N[C@H](C(=O)N[C@@H](Cc1ccccc1)C(N)=O)[C@@H](C)CC [Kn2(S10R)] (H-FIGAIARLLRKIF-NH2)		10 (≈ 6.59 µM)	20 (≈ 13.2 µM)	50.9
CC[C@H](C)[C@H](NC(=O)[C@H](CCCNC(=N)N)NC(=O)CNC(=O)[C@@H](NC(=O)[C@@H](N)Cc1ccccc1)[C@@H](C)CC)C(=O)N[C@@H](C)C(=O)N[C@@H](CCCNC(=N)N)C(=O)N[C@@H](CC(C)C)C(=O)N[C@@H](CC(C)C)C(=O)N[C@@H](CCCNC(=N)N)C(=O)N[C@@H](CCCCN)C(=O)N[C@H](C(=O)N[C@@H](Cc1ccccc1)C(N)=O)[C@@H](C)CC [Kn2(A4R_S10R)] (H-FIGRIARLLRKIF-NH2)		10 (≈ 6.24 µM)	20 (≈ 12.5 µM)	18.0
CC[C@H](C)[C@H](NC(=O)[C@H](CCCCN)NC(=O)[C@H](CCCCN)NC(=O)[C@@H](NC(=O)[C@@H](N)Cc1ccccc1)[C@@H](C)CC)C(=O)N[C@@H](C)C(=O)N[C@@H](CCCNC(=N)N)C(=O)N[C@@H](CC(C)C)C(=O)N[C@@H](CC(C)C)C(=O)N[C@@H](CCCNC(=N)N)C(=O)N[C@@H](CCCCN)C(=O)N[C@H](C(=O)N[C@@H](Cc1ccccc1)C(N)=O)[C@@H](C)CC [Kn2-7(R4K)] (H-FIKKIARLLRKIF-NH2)		5 (≈ 3.04 µM)	5 (≈ 3.04 µM)	
CC[C@H](C)[C@H](NC(=O)[C@H](CCCNC(=N)N)NC(=O)[C@H](CCCCN)NC(=O)[C@@H](NC(=O)[C@@H](N)Cc1ccccc1)[C@@H](C)CC)C(=O)N[C@@H](C)C(=O)N[C@@H](CCCNC(=N)N)C(=O)N[C@@H](CC(C)C)C(=O)N[C@@H](CC(C)C)C(=O)N[C@@H](CCCNC(=N)N)C(=O)N[C@@H](CCCNC(=N)N)C(=O)N[C@H](C(=O)N[C@@H](Cc1ccccc1)C(N)=O)[C@@H](C)CC [Kn2-7(K11R)] (H-FIKRIARLLRRIF-NH2)		5 (≈ 2.94 µM)	10 (≈ 5.88 µM)	
CC[C@H](C)[C@H](NC(=O)[C@H](CCCNC(=N)N)NC(=O)[C@H](CCCCN)NC(=O)[C@@H](NC(=O)[C@@H](N)Cc1ccccc1)[C@@H](C)CC)C(=O)N[C@@H](C)C(=O)N[C@@H](CCCCN)C(=O)N[C@@H](CC(C)C)C(=O)N[C@@H](CC(C)C)C(=O)N[C@@H](CCCNC(=N)N)C(=O)N[C@@H](CCCCN)C(=O)N[C@H](C(=O)N[C@@H](Cc1ccccc1)C(N)=O)[C@@H](C)CC [Kn2-7(R7K)] (H-FIKRIAKLLRKIF-NH2)		5 (≈ 3.04 µM)	20 (≈ 12.2 µM)	
CC[C@H](C)[C@H](NC(=O)[C@H](CCCCN)NC(=O)[C@H](CCCCN)NC(=O)[C@@H](NC(=O)[C@@H](N)Cc1ccccc1)[C@@H](C)CC)C(=O)N[C@@H](C)C(=O)N[C@@H](CCCNC(=N)N)C(=O)N[C@@H](CC(C)C)C(=O)N[C@@H](CC(C)C)C(=O)N[C@@H](CCCCN)C(=O)N[C@@H](CCCCN)C(=O)N[C@H](C(=O)N[C@@H](Cc1ccccc1)C(N)=O)[C@@H](C)CC [Kn2-7(R4K_R10K)] (H-FIKKIARLLKKIF-NH2)		2.5 (≈ 1.55 µM)	5 (≈ 3.09 µM)	
CC[C@H](C)[C@H](NC(=O)[C@H](CCCNC(=N)N)NC(=O)[C@H](CCCCN)NC(=O)[C@@H](NC(=O)[C@@H](N)Cc1ccccc1)[C@@H](C)CC)C(=O)N[C@@H](C)C(=O)N[C@@H](CCCNC(=N)N)C(=O)N[C@@H](CC(C)C)C(=O)N[C@@H](CC(C)C)C(=O)N[C@@H](CO)C(=O)N[C@@H](CCCCN)C(=O)N[C@H](C(=O)N[C@@H](Cc1ccccc1)C(N)=O)[C@@H](C)CC [Kn2(G3K_A4R)] (H-FIKRIARLLSKIF-NH2)		5 (≈ 3.12 µM)	10 (≈ 6.23 µM)	8.3
CC[C@H](C)[C@H](NC(=O)[C@H](CCCNC(=N)N)NC(=O)[C@H](CCCCN)NC(=O)[C@@H](NC(=O)[C@@H](N)Cc1ccccc1)[C@@H](C)CC)C(=O)N[C@@H](C)C(=O)N[C@@H](CCCNC(=N)N)C(=O)N[C@@H](CC(C)C)C(=O)N[C@@H](CC(C)C)C(=O)N[C@@H](CCCCN)C(=O)N[C@@H](CCCCN)C(=O)N[C@H](C(=O)N[C@@H](Cc1ccccc1)C(N)=O)[C@@H](C)CC [Kn2-7(R10K)] (H-FIKRIARLLKKIF-NH2)		5 (≈ 3.04 µM)	5 (≈ 3.04 µM)	

— article PMC8319832, “Fine-Tuning of Alkaline Residues on the Hydrophilic Face Provides a Non-toxic Cationic α-Helical Antimicrobial Peptide Against Antibiotic-Resistant ESKAPE Pathogens” (Frontiers in Microbiology, 2021)
